Experimental data taken from article PMC7290078, “Agonist bias and agonist‐dependent antagonism at corticotrophin releasing factor receptors” (Pharmacology Research & Perspectives, 2020).

Experiments:
CRF1 receptor = conditions: cited from earlier work
CRF1 receptor (hCRF1α) = target: T1, CRF1 receptor (hCRF1α) (Homo sapiens, UniProt P34998); test: Antagonism of agonist-mediated IP1 accumulation in Cos7 cells expressing CRF1 receptors; format: cell-based; conditions: for effect on agonist efficacy β: could not be determined, assumed; for allosteric effect α: operational model of allosterism; for antagonist potency (pKB): Gaddum method for insurmountable antagonism, mean ± SEM, n = 5
T1 construct: host or cells: Cos7 cells, transient transfection (PEI), pcDNA3.0/3.1 vector
T1 sequence (P34998 24-415): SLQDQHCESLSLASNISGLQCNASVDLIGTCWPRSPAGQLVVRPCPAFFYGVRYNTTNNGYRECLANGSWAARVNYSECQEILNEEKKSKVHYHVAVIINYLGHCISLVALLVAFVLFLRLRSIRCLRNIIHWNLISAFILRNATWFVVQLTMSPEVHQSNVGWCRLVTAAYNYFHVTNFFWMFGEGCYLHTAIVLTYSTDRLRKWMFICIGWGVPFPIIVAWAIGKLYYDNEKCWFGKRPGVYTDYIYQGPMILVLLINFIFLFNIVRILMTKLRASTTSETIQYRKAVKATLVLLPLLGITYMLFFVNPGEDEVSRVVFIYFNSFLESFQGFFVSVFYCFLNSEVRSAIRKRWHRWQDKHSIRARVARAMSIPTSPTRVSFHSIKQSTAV
From the text: Plasmids containing hCRF1α and hCRF2α (GenBank accession numbers AY457172 and AY449734) were obtained from the cDNA Resource Centre (Bloomsburg University) and are referred to as CRF1 and CRF2 in this manuscript. Hemagglutinin (HA) epitope‐tagged human Calcitonin (CT) receptor (CT(a) splice variant) and myc‐tagged human RAMP1 were used as described previously. ^27 HA‐tagged human calcitonin receptor‐like receptor (CLR), N‐terminal FLAG‐tagged human RAMP3 and N‐terminal myc‐tagged human RAMP3 were a gift from Professor David Poyner (Aston University) and Professor Patrick Sexton (Monash University), respectively. N‐terminal FLAG‐tagged human RAMP2 was used as described previously. ^28 All receptors and RAMPs were cloned in pcDNA3.0 or pcDNA3.1 plasmid vectors. All plasmid inserts were sequenced at the Centre for Genomics, Proteomics and Metabolomics (University of Auckland) and the sequences were verified prior to use.
Cos7, HEK‐293S, and HEK‐293T cells were cultured as described previously. ^28 , ^29 Cos7 cells were originally supplied by the ATCC to Associate Professor Nigel Birch (University of Auckland). HEK‐293S cells were a gift from Professor David Poyner (Aston University) and HEK‐293T cells a gift from Professor John Taylor (University of Auckland). Briefly, all cell lines were cultured in Dulbecco's Modified Eagle Medium (DMEM) supplemented with 8% heat inactivated fetal bovine serum (FBS) and maintained in a humidified incubator at 37°C with 5% CO2. For transfection, cells were counted (Countess CounterTM; Life Technologies) and plated at a density of 20 000 cells per well in 96‐well plates. The cells were transiently transfected 48 hours prior to assaying using polyethylenimine (PEI), as described previously. ^28 , ^29 In all experiments a total of 0.25 μg DNA was transfected per well. In the majority of experiments 0.25 μg DNA of receptor‐containing plasmid or the pcDNA3.1 plasmid without an insert was used. For experiments involving RAMPs, 0.125 μg of receptor DNA and 0.125 μg of RAMP‐containing plasmid DNA were transfected to give a 1:1 ratio of receptor to RAMP. Where the RAMP or receptor were transfected alone, the ratio of DNA was made up with the pcDNA3.1 plasmid.
The IP‐one Gq assay kit (Cisbio) was used to quantify accumulated myo‐inositol‐1‐phosphate (IP1), a by‐product of IP3 produced after receptor‐mediated Gαq activation in Cos7 and HEK‐293S cells. Briefly, culture media was removed and replaced with DMEM containing 0.1% BSA for 30 minutes at 37°C. Cells were then incubated with media containing 50 mmol/L lithium chloride (LiCl) for an additional 0‐120 minutes (time courses) or 90 minutes at 37°C in the presence or absence of an antagonist. Agonist concentrations of 1 pmol/L to 10 µmol/L were used for agonist only assays or 10 pmol/L to 10 µmol/L concentrations for antagonist experiments. After cell stimulation, 14 µL of stimulation buffer was added to each well. Three microlitres of each detection antibody were added in turn to the plate and incubated at room temperature for 1 hour. Fifteen microliters of sample was then transferred to a 384‐well optiplate and read by an Envision plate reader (PerkinElmer). IP1 concentrations were calculated from a standard curve generated in duplicate.
In all experiments the position of peptides and antagonists (pharmacology) or transfected receptors (ELISAs) on assay plates was randomized during each independent experiment, which are independent biological replicates. In all cases, duplicate, triplicate, or quadruplicate technical replicates were conducted for each independent experiment. For transfected cell experiments, each independent experiment involved plating cells from a distinct passage, separate transient transfection and separate signaling or ELISA assays, constituting experimental n. […]

## CCC(CC)Nc1cc(C)nc(Oc2c(C)cc(C)cc2C)c1C [CP‐376,395]
CRF1 receptor
  selectivity: selective for the CRF1 receptor
CRF1 receptor (hCRF1α); CRF1 receptor
  potency against CRF‐mediated relative to UCN1‐mediated IP1 accumulation: approximately 8 fold
CRF1 receptor (hCRF1α); IP1 accumulation
  mode of antagonism: non‐competitive antagonist of IP1 accumulation
CRF1 receptor (hCRF1α); agonist CRF, IP1, CRF1
  effect on agonist efficacy β: ~ 0
  allosteric effect α: 0.03
CRF1 receptor (hCRF1α); agonist CRF, IP1, hCRF1α
  antagonist potency (pKB): 7.55 ± 0.10
CRF1 receptor (hCRF1α); agonist UCN1, IP1, CRF1
  effect on agonist efficacy β: ~ 0
  allosteric effect α: 0.15
CRF1 receptor (hCRF1α); agonist UCN1, IP1, hCRF1α
  antagonist potency (pKB): 6.67 ± 0.08
CRF1 receptor (hCRF1α); antagonism of CRF and UCN1‐mediated IP1, CRF1 receptor, F tests
  effect on agonist E max: a reduction in E max
